{
  "source": "patent US9504676B2",
  "about": "“Molecules inhibiting a metabolic pathway involving the Syk protein tyrosine kinase and method for identifying said molecules” (CENTRE NATIONAL DE LA RECHERCHE SCIENTIFIQUE, priority 2008, dated 2016)",
  "key": {"[1]": {"tested_on": "Btk", "test": "Phosphorylation and FcεRI-induced kinase activity of Btk in RBL-2H3 cells", "format": "cell-based, rat", "description": "(§1) To examine the functional similarities with G4G11, the inventors explored the biological effects of C-13 on mast cell activation. […] Similarly to the intrabody G4G11, C-13 inhibited the phosphorylation and FcεRI-induced kinase activity of Btk (FIG. 2A) and the phosphorylation of PLC-γ1 and PLC-γ2, the two PLC-γ isoforms expressed in mast cells (FIGS. 2A, C). PTK Lyn phosphorylates both Syk and Btk giving rise to the complete activation thereof and the subsequent phosphorylation of PLC-γ^18.\n(§2) • 1) Chemical products and antibodies. A chemical bank of 3000 molecules (a varied subset) was acquired from ChemBridge, Inc. (San Diego, Calif.). Stocks of solutions of small molecules were prepared at a rate of 10 mM in DMSO (dimethylsulphoxide), except for C-13 (methyl 2-{5-[(3-benzyl-4-oxo-2-thioxo-1,3-thiazolidin-5-ylidene)methyl]-2-furyl}benzoate, ChemBridge ID No. 6197026) prepared in DMF (dimethylformamide). […] The binding of G4G11 with Syk was assessed by adding the 9E10 monoclonal antibody conjugated with HRP detecting the amino acid sequence EQKLISEEDLN of human c-myc protein located at the C-terminal end of the scFv fragment. To generate Syk mutants, targeted mutagenesis was used on GST:Syk 6-242 protein and the binding of G4G11 with the mutants was assessed in the presence of 5 μM of C-13. • 3) Cells, culture conditions and functional tests. […]"}, "[2]": {"tested_on": "Lyn", "test": "FcεRI-dependent Lyn activation in RBL-2H3 cells", "format": "cell-based, rat", "description": "as §1, §2"}},
  "data": [
    {"smiles": "COC(=O)c1ccccc1-c1ccc(/C=C2/SC(=S)N(Cc3ccccc3)C2=O)o1", "note": "[Molecule C-13, methyl 2-{5-[(3-benzyl-4-oxo-2-thioxo-1,3-thiazolidin-5-ylidene)methyl]-2-furyl}benzoate]", "values": [
      {"measurement": "phosphorylation and FcεRI-induced kinase activity of Btk", "setting": "[1]", "result": "inhibited"},
      {"measurement": "FcεRI-dependent Lyn activation", "setting": "[2]", "result": "did not affect"}
    ]}
  ]
}
